Reference: patent publication US12371454B2, “Cyclic peptide compound having Kras inhibitory action” (priority 2019, dated 2025)
Starred links: 1 amine or outer side, 2 acyl side, 3 side chain; linkers in the order of their positions; H or OH if unused. Positions of bridges follow the written chain, without caps; N, C: chain ends. Non-standard residues stand in square brackets, D forms with d. Residues, ends and D or L forms follow the SMILES beside them. *: point of attachment. hPhe(3,5-F2-4-CF3) = N[C@@H](CCc1cc(F)c(C(F)(F)F)c(F)c1)C(=O)O; hPhe(3-Cl-4-CF3) = N[C@@H](CCc1ccc(C(F)(F)F)c(Cl)c1)C(=O)O; NMeAla(4-thiazolyl) = CN[C@@H](Cc1cscn1)C(=O)O; 3Oxa8azabicyclo(3.2.1)octane = C1CC2COCC1N2*; NMeAbu(4,4,4-F3) = CN[C@@H](CC(F)(F)F)C(=O)O; NMePhe(4-Me) = CN[C@@H](Cc1ccc(C)cc1)C(=O)O; NMeNle(6-CHF2) = CN[C@@H](CCCCC(F)F)C(=O)O; NMePhe(4-F) = CN[C@@H](Cc1ccc(F)cc1)C(=O)O; NMedβ3hAla = C[C@H](CC(=O)[*:2])N(C)[*:1]; NMeAla(cPent) = CN[C@@H](CC1CCCC1)C(=O)O; NMeGly(cPent) = CN[C@H](C(=O)O)C1CCCC1; NMeGly(cBu) = CN[C@H](C(=O)O)C1CCC1; NMeCha = CN[C@@H](CC1CCCCC1)C(=O)O; NMeChg = CN[C@H](C(=O)O)C1CCCCC1; NMeI = CC[C@H](C)[C@H](NC)C(=O)O; Gly(cBu) = N[C@H](C(=O)O)C1CCC1; NMeD = CN[C@@H](CC(=O)O)C(=O)O; NMeL = CN[C@@H](CC(C)C)C(=O)O; NMeV = CN[C@H](C(=O)O)C(C)C; d(β3hA) = C[C@@H](N)CC(=O)O; Azetidin(1-yl) = C1CN(*)C1; Ac6c = NC1(C(=O)O)CCCCC1; Morpholide = C1CN(*)CCO1; NMeA = CN[C@@H](C)C(=O)O; Piperidide = C1CCN(*)CC1; Ac5c = NC1(C(=O)O)CCCC1; Aze = O=C(O)[C@@H]1CCN1; Aib = CC(C)(N)C(=O)O; NEtG = CCNCC(=O)O; Sar = CNCC(=O)O

Experiments:
[1] = test system: Human pancreatic cancer cell line AsPC-1; test: Measurement of AsPC-1 cell growth inhibition (AsPC-1 CGI); assay type: cell-based; details: 96 h
Summary of the method: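 AsPC-1 cells in 15% FBS RPMI-1640 were exposed to test compound for 96 hours at 37° C, with CellTiter-Glo as endpoint.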

[2] = target: T1, Kras and SOS1 (biotin-tagged human Kras loaded with GDP, His-tagged human SOS1) (Homo sapiens, UniProt P01116, G12D); test: Protein-protein interaction inhibition between Kras and SOS1 (KrasGl2D-SOS PPI) using AlphaScreen; assay type: binding; details: AlphaScreen; biotin-tagged human Kras loaded with GDP, His-tagged human SOS1; read-out: KRAS G12D-SOS PPI IC50
T1 construct: made in house; host or cells: E. coli (stated for Kras only)
T1 sequence (P01116 1-188 isoform P01116-2 G12D): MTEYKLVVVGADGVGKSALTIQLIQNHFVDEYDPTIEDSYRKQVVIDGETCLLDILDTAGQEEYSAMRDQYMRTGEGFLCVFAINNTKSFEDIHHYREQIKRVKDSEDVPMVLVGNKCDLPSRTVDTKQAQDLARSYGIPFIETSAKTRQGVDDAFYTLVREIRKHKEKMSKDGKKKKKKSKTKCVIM
Summary of the method: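 Donor beads (nickel) hold His-SOS1; acceptor beads (streptavidin) hold biotin-Kras bound to GDP. Signal measured at 520-620 nm following 680 nm excitation.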

Row | SMILES | IC50 [1] [nM] | IC50 [2] [nM]
1 | CC[C@H](C)[C@@H]1NC(=O)[C@H](C2CCC2)N(C)C(=O)C[C@@H](C(=O)N2C3CCC2COC3)N(C)C(=O)[C@H](C2CCCCC2)N(C)C(=O)C2(CCCC2)NC(=O)[C@@H]2CCCN2C(=O)[C@H](CCc2ccc(C(F)(F)F)c(Cl)c2)NC(=O)CN(C)C(=O)[C@H](Cc2ccc(C)cc2)N(C)C(=O)CN(C)C(=O)CN(C)C1=O [Compound 353] ([NMeGly(cBu)]I[Sar][Sar][NMePhe(4-Me)][Sar][hPhe(3-Cl-4-CF3)]P[Ac5c][NMeChg][NMeD]-{3Oxa8azabicyclo(3.2.1)octane}; lactam N-11) | 50 to 100 | 0.69
2 | CC[C@H](C)[C@@H]1NC(=O)[C@H](CC(C)C)N(C)C(=O)C[C@@H](C)NC(=O)[C@H](C2CCCC2)N(C)C(=O)C(C)(C)NC(=O)[C@@H]2CCCN2C(=O)[C@H](CCc2ccc(C(F)(F)F)c(Cl)c2)NC(=O)CN(C)C(=O)[C@H](Cc2ccc(C)cc2)N(C)C(=O)[C@@H]2CCN2C(=O)[C@H](C)N(C)C1=O [Compound 354] (cyclo([Aib][NMeGly(cPent)][d(β3hA)][NMeL]I[NMeA][Aze][NMePhe(4-Me)][Sar][hPhe(3-Cl-4-CF3)]P)) | 100 to 500 | 1.6
3 | CC[C@H](C)[C@@H]1NC(=O)[C@H](C)N(C)C(=O)C[C@@H](C(=O)N2CCCCC2)N(C)C(=O)[C@H](C(C)C)N(C)C(=O)C2(CCCC2)NC(=O)[C@@H]2CCCN2C(=O)[C@H](CCc2ccc(C(F)(F)F)c(Cl)c2)NC(=O)CN(C)C(=O)[C@H](CC2CCCCC2)N(C)C(=O)CN(C)C(=O)CN(C)C1=O [Compound 360] ([NMeA]I[Sar][Sar][NMeCha][Sar][hPhe(3-Cl-4-CF3)]P[Ac5c][NMeV][NMeD]-Piperidide; lactam N-11) | 100 to 500 | 2.8
4 | CC[C@H](C)[C@@H]1NC(=O)[C@H](CC(C)C)N(C)C(=O)C[C@@H](C)NC(=O)[C@H](CC(C)C)N(C)C(=O)C2(CCCC2)NC(=O)[C@@H]2CCCN2C(=O)[C@H](CCc2cc(F)c(C(F)(F)F)c(F)c2)NC(=O)CN(C)C(=O)[C@H](CC2CCCCC2)N(C)C(=O)CN(C)C(=O)CN(C)C1=O [Compound 364] (cyclo([Ac5c][NMeL][d(β3hA)][NMeL]I[Sar][Sar][NMeCha][Sar][hPhe(3,5-F2-4-CF3)]P)) | 100 to 500 | 9.7
5 | CC[C@H](C)[C@@H]1NC(=O)[C@H](CC(F)(F)F)N(C)C(=O)C[C@@H](C(=O)N2CCOCC2)N(C)C(=O)[C@H](C2CCCCC2)N(C)C(=O)C2(CCCC2)NC(=O)[C@@H]2CCCN2C(=O)[C@H](CCc2ccc(C(F)(F)F)c(Cl)c2)NC(=O)CN(C)C(=O)[C@H](CC2CCCC2)N(C)C(=O)CN(C)C(=O)CN(C)C1=O [Compound 367] ([NMeAbu(4,4,4-F3)]I[Sar][Sar][NMeAla(cPent)][Sar][hPhe(3-Cl-4-CF3)]P[Ac5c][NMeChg][NMeD]-Morpholide; lactam N-11) | 100 to 500 | 0.6
6 | CC[C@H](C)[C@@H]1NC(=O)[C@H](CC(C)C)N(C)C(=O)C[C@@H](C(=O)N(C)C)N(C)C(=O)[C@H](C2CCCC2)N(C)C(=O)C2(CCCC2)NC(=O)[C@H](Cc2cscn2)N(C)C(=O)[C@H](CCc2ccc(C(F)(F)F)c(Cl)c2)NC(=O)CN(C)C(=O)[C@H](CC2CCCCC2)N(C)C(=O)[C@@H]2CCN2C(=O)[C@H](C)N(C)C1=O [Compound 384] ([NMeL]I[NMeA][Aze][NMeCha][Sar][hPhe(3-Cl-4-CF3)][NMeAla(4-thiazolyl)][Ac5c][NMeGly(cPent)][NMeD]-NMe2; lactam N-11) | 100 to 500 | 1
7 | CC[C@H](C)[C@@H]1NC(=O)[C@H](CC(C)C)N(C)C(=O)C[C@@H](C(=O)N(C)C)N(C)C(=O)[C@H]([C@@H](C)CC)N(C)C(=O)C2(CCCC2)NC(=O)[C@H](Cc2ccc(F)cc2)N(C)C(=O)[C@H](CCc2ccc(C(F)(F)F)c(Cl)c2)NC(=O)CN(C)C(=O)[C@H](Cc2ccc(C)cc2)N(C)C(=O)[C@@H]2CCN2C(=O)[C@H](C)N(C)C1=O [Compound 385] ([NMeL]I[NMeA][Aze][NMePhe(4-Me)][Sar][hPhe(3-Cl-4-CF3)][NMePhe(4-F)][Ac5c][NMeI][NMeD]-NMe2; lactam N-11) | 50 to 100 | 4.7
8 | CC[C@H](C)[C@@H]1NC(=O)[C@H](C2CCCC2)N(C)C(=O)C[C@@H](C(=O)N2CCCCC2)N(C)C(=O)[C@H](C(C)C)N(C)C(=O)C2(CCCC2)NC(=O)[C@@H]2CCCN2C(=O)[C@H](CCc2ccc(C(F)(F)F)c(Cl)c2)NC(=O)CN(C)C(=O)[C@H](CC2CCCCC2)N(C)C(=O)CN(C)C(=O)CN(C)C1=O [Compound 393] ([NMeGly(cPent)]I[Sar][Sar][NMeCha][Sar][hPhe(3-Cl-4-CF3)]P[Ac5c][NMeV][NMeD]-Piperidide; lactam N-11) | 100 to 500 | 5.3
9 | CC[C@H](C)[C@@H]1NC(=O)[C@H](CC(C)C)N(C)C(=O)C[C@@H](C)NC(=O)[C@H](C(C)C)N(C)C(=O)C2(CCCC2)NC(=O)[C@@H]2CCCN2C(=O)[C@H](CCc2ccc(C(F)(F)F)c(Cl)c2)NC(=O)CN(CC)C(=O)[C@H](CC2CCCCC2)N(C)C(=O)CN(C)C(=O)CN(C)C1=O [Compound 395] (cyclo([Ac5c][NMeV][d(β3hA)][NMeL]I[Sar][Sar][NMeCha][NEtG][hPhe(3-Cl-4-CF3)]P)) | 100 to 500 | 47
10 | CC(C)C[C@H]1C(=O)N[C@@H](C2CCC2)C(=O)N(C)CC(=O)N(C)CC(=O)N(C)[C@@H](CC2CCCCC2)C(=O)N(C)CC(=O)N[C@@H](CCc2ccc(C(F)(F)F)c(Cl)c2)C(=O)N2CCC[C@H]2C(=O)NC2(CCCC2)C(=O)N(C)[C@@H](C2CCCCC2)C(=O)N(C)[C@H](C(=O)N2CCCCC2)CC(=O)N1C [Compound 411] ([NMeL][Gly(cBu)][Sar][Sar][NMeCha][Sar][hPhe(3-Cl-4-CF3)]P[Ac5c][NMeChg][NMeD]-Piperidide; lactam N-11) | 50 to 100 | 0.62
11 | CC[C@H](C)[C@@H]1NC(=O)[C@H](CC(C)C)N(C)C(=O)C[C@@H](C)N(C)C(=O)[C@H](C2CCCC2)N(C)C(=O)C2(CCCC2)NC(=O)[C@@H]2CCCN2C(=O)[C@H](CCc2ccc(C(F)(F)F)c(Cl)c2)NC(=O)CN(C)C(=O)[C@H](CC2CCCCC2)N(C)C(=O)CN(C)C(=O)CN(C)C1=O [Compound 420] (cyclo([Ac5c][NMeGly(cPent)][NMedβ3hAla][NMeL]I[Sar][Sar][NMeCha][Sar][hPhe(3-Cl-4-CF3)]P)) | 50 to 100 | 3.4
12 | CC[C@H](C)[C@@H]1NC(=O)[C@H](CCCCC(F)F)N(C)C(=O)C[C@@H](C(=O)N2CCCCC2)N(C)C(=O)[C@H](C2CCCCC2)N(C)C(=O)C2(CCCC2)NC(=O)[C@@H]2CCCN2C(=O)[C@H](CCc2ccc(C(F)(F)F)c(Cl)c2)NC(=O)CN(C)C(=O)[C@H](CC2CCCCC2)N(C)C(=O)CN(C)C(=O)CN(C)C1=O [Compound 425] ([NMeNle(6-CHF2)]I[Sar][Sar][NMeCha][Sar][hPhe(3-Cl-4-CF3)]P[Ac5c][NMeChg][NMeD]-Piperidide; lactam N-11) | 50 to 100 | 0.57
13 | CC[C@H](C)[C@@H]1NC(=O)[C@H](C2CCC2)N(C)C(=O)C[C@@H](C(=O)N2CCOCC2)N(C)C(=O)[C@H](C2CCCCC2)N(C)C(=O)C2(CCCC2)NC(=O)[C@@H]2CCCN2C(=O)[C@H](CCc2ccc(C(F)(F)F)c(Cl)c2)NC(=O)CN(C)C(=O)[C@H](CC2CCCC2)N(C)C(=O)CN(C)C(=O)CN(C)C1=O [Compound 434] ([NMeGly(cBu)]I[Sar][Sar][NMeAla(cPent)][Sar][hPhe(3-Cl-4-CF3)]P[Ac5c][NMeChg][NMeD]-Morpholide; lactam N-11) | 50 to 100 | 0.52
14 | CC[C@H](C)[C@@H]1NC(=O)[C@H](CC(C)C)N(C)C(=O)C[C@@H](C(=O)N2CCC2)N(C)C(=O)[C@H](C2CCCCC2)N(C)C(=O)C2(CCCC2)NC(=O)[C@@H]2CCCN2C(=O)[C@H](CCc2ccc(C(F)(F)F)c(Cl)c2)NC(=O)CN(C)C(=O)[C@H](CC2CCCCC2)N(C)C(=O)CN(C)C(=O)CN(C)C1=O [Compound 437] ([NMeL]I[Sar][Sar][NMeCha][Sar][hPhe(3-Cl-4-CF3)]P[Ac5c][NMeChg][NMeD]-{Azetidin(1-yl)}; lactam N-11) | 50 to 100 | 0.47
15 | CC[C@H](C)[C@@H]1NC(=O)[C@H](CC(C)C)N(C)C(=O)C[C@@H](C(=O)N2CCCCC2)N(C)C(=O)[C@H](C(C)C)N(C)C(=O)C2(CCCC2)NC(=O)[C@@H]2CCCN2C(=O)[C@H](CCc2ccc(C(F)(F)F)c(Cl)c2)NC(=O)CN(C)C(=O)[C@H](CC2CCCCC2)N(C)C(=O)CN(C)C(=O)CN(C)C1=O [Compound 438] ([NMeL]I[Sar][Sar][NMeCha][Sar][hPhe(3-Cl-4-CF3)]P[Ac5c][NMeV][NMeD]-Piperidide; lactam N-11) | 50 to 100 | 6
16 | CC[C@H](C)[C@@H]1NC(=O)[C@H](CC(C)C)N(C)C(=O)C[C@@H](C)NC(=O)[C@H](C(C)C)N(C)C(=O)C2(CCCCC2)NC(=O)[C@@H]2CCCN2C(=O)[C@H](CCc2ccc(C(F)(F)F)c(Cl)c2)NC(=O)CN(C)C(=O)[C@H](CC2CCCCC2)N(C)C(=O)CN(C)C(=O)CN(C)C1=O [Compound 439] (cyclo([Ac6c][NMeV][d(β3hA)][NMeL]I[Sar][Sar][NMeCha][Sar][hPhe(3-Cl-4-CF3)]P)) | 100 to 500 | 52
17 | CC[C@H](C)[C@@H]1NC(=O)[C@H](CC(C)C)N(C)C(=O)C[C@@H](C(=O)N(C)C)N(C)C(=O)[C@H]([C@@H](C)CC)N(C)C(=O)C2(CCCC2)NC(=O)[C@H](Cc2cscn2)N(C)C(=O)[C@H](CCc2ccc(C(F)(F)F)c(Cl)c2)NC(=O)CN(C)C(=O)[C@H](Cc2ccc(C)cc2)N(C)C(=O)[C@@H]2CCN2C(=O)[C@H](C)N(C)C1=O [Compound 441] ([NMeL]I[NMeA][Aze][NMePhe(4-Me)][Sar][hPhe(3-Cl-4-CF3)][NMeAla(4-thiazolyl)][Ac5c][NMeI][NMeD]-NMe2; lactam N-11) | 20 to 50 | 0.73
